Among the data in patent US20210179577A1, “AROMATIC SULFONAMIDE DERIVATIVES FOR THE TREATMENT OF ISCHEMIC STROKE” (Bayer Aktiengesellschaft, priority 2017, published 2021) are IC50 and Emax values, retold here.

The experiment concerns the target T1, endogenous P2X4 channels (Homo sapiens, UniProt Q99571).
T1 construct: measure calcium influx through endogenous P2X4 channels into primary human monocytes; endogenous in cells; host or cells: primary human monocytes isolated from donor PBMCs
T1 sequence (Q99571 1-388): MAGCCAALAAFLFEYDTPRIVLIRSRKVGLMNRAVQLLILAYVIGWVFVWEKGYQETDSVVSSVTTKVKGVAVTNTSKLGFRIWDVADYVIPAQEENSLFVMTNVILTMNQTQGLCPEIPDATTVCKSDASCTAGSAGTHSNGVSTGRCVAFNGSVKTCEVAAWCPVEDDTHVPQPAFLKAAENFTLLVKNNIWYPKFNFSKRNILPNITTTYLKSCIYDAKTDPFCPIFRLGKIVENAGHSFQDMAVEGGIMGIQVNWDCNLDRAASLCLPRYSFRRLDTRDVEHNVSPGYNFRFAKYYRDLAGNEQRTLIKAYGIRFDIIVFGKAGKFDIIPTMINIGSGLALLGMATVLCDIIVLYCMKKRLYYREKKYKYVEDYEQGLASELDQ
Description: Human Monocyte P2X4 Assay (FLIPR). The settings on record: primary human monocytes, 3 μM BzATP, one value per donor; for Emax: read-out: Human P2X4 Monocytes (FLIPR Assay) Efficacy for different donors. It counts as cell-based. How it is done: The principle of the assay is to measure calcium influx through endogenous P2X4 channels into primary human monocytes, following activation by 2′,3′-O-(4-benzoyl-benzoyl)-ATP (Bz-ATP). Intracellular calcium concentration changes were measured with a Flipr™ (Molecular Devices) device using a calcium sensitive dye (Fluo-8). In primary monocytes P2X4 is located at the lysosome membrane, therefore exocytosis has to be triggered to expose P2X4 at the cellular membrane.
Human peripheral blood mononuclear cells (PBMCs) from anticoagulated blood (blood cells, BC) were isolated via density gradient centrifugation. Whole blood was diluted 1:3 with PBS. Samples of 30 mL were layered carefully on top of 15 mL Biocoll (BIOCHROM) in 50 mL centrifuge tubes (Falcon). Tubes were centrifuged at 914×g for 25 min at RT without brake. The PBMC layer was removed with a 10 mL pipette and transferred into tubes with ice-cold PBS in a total volume of 50 mL. Cells were washed twice by pelleting at 300×g at 4° C., for 10 min and for 5 min respectively. PBMCs were re-suspended in 10 mL medium (X-vivo, Biozym Scientific) and counted in a Neubauer chamber.
Monocytes were isolated by negative selection using the Monocyte isolation kit II from Miltenyi (#130-091-153) according to the instructions. Isolation should be done fast and cells and solutions should be kept on ice at any time. PBMCs in batches of 10exp8 cells were pelleted (300×g, 10 min) and re-suspended with 300 μL MACS buffer in a 50 mL Falcon tube. FcR Blocking reagent (100 μl) and Biotin-Ab (100 μl) were added, mixed and incubated on ice for 10 min. MACS buffer (300 μL) and anti-Biotin Micro-beads (100 μL) were added, mixed and incubated on ice for 15 min. Cells were washed by pelleting (300×g for 10 min) and re-suspended in 500 μL MACS buffer. For each batch one separation column was placed in the MACS separator and rinsed with 3 mL MACS buffer. The cell suspension was added to the column, followed by 3×3 mL MACS buffer for washing, and the eluent containing the monocytes was collected. Cells were pelleted (300×g for 10 min), re-suspended in X-vivo medium and counted. Monocytes were seeded into fibronectin-coated micro-plates (384-well, black, flat transparent bottom; Corning #3848) at a density of 30,000 cells/well in 50 μL, and cultivated over night (37° C., 5% CO2).
Test substances were dissolved in 100% DMSO at a stock concentration of 10 mM and stored at −20° C. in aliquots. Serial dilutions (2×) were prepared in DMSO and diluted 500× with assay buffer to generate the antagonist plate. In the Flipr measurement, 10 μL per well were transferred (4× dilution) and a final top concentrations of 5 μM and 0.05% DMSO were obtained in the assay. Agonist BzATP was stored at 10 mM in aliquots and diluted to an intermediate concentration of 15 μM to generate the agonist plate. In the Flipr measurement, 10 μL per well were transferred (5× dilution) so that a final assay concentration of 3 μM was obtained.
For the experiment, the medium of the cell plate was discarded manually and 70 μL/well loading buffer was added and incubated for 1 h (37° C., 5% CO2). Loading buffer contained HBSS (w/o calcium/magnesium), 10 mM Hepes pH 7.4, 5 μM Fluo-8 (AM) (Tebu-bio) and 50 mM methylamine (Sigma) to trigger exocytosis. Loading buffer was discarded manually and 30 μL/well low-calcium assay buffer (5 mM KCl, 145 mM NaCl, 0.5 mM CaCl2), 13 mM glucose, 10 mM Hepes pH 7.4) was added. The antagonist plate was transferred (10 μL/well) and after 15 min at RT the agonist plate (10 μL/well) was transferred.
Agonist addition was recorded for 240 seconds after a 10 second baseline. For analysis, a baseline correction was applied, and the maximum of the curve was extracted. Data were normalized towards 0% inhibition (signal at 3 μM BzATP) and 100% inhibition (absence of BzATP stimulation) and fitted with a four-parameter sigmoidal inhibition curve using Prism Graph Pad to obtain IC50 values.

The mark [1] stands for this setting: read-out: Human P2X4 Monocytes (FLIPR Assay) IC50 for different donors.

The structures appear in SMILES notation. pIC50: −log10 of the molar value. Values joined by “and” are separate entries in the source; they are usually repeats but may differ in a detail not shown here. Equal values may be shown once.

As for `NS(=O)(=O)c1cc(NC(=O)Cc2ccccc2Cl)ccc1-n1cc(C(F)(F)F)cn1` [Example 19, 2-(2-Chlorophenyl)-N-{3-sulfamoyl-4-[4-(trifluoromethyl)-1H-pyrazol-1-yl]phenyl}acetamide], under setting [1], the concentration for half-maximal inhibition (IC50) (in general, the concentration at which inhibition is half-maximal) is 59 nM (2×) and 21 nM and 76 nM and 45 nM. Regarding `NS(=O)(=O)c1cc(NC(=O)Cc2ccccc2Cl)ccc1-n1cc(F)cn1` [Example 26, 2-(2-Chlorophenyl)-N-[4-(4-fluoro-1H-pyrazol-1-yl)-3-sulfamoylphenyl]acetamide], the Emax was 71%. Further, the pIC50 (in general, the IC50 on a negative log10 scale, so that one unit is a factor of ten) under setting [1] is 6.54 and 6.74.

Take `N#Cc1cnn(-c2ccc(NC(=O)Cc3ccccc3Cl)cc2S(N)(=O)=O)c1` [Example 39, 2-(2-Chlorophenyl)-N-[4-(4-cyano-1H-pyrazol-1-yl)-3-sulfamoylphenyl]acetamide]: the Emax came to 88%. Under setting [1], the pIC50 is 6.98 and 7.49 and 7.15.

For the compound `NS(=O)(=O)c1cc(NC(=O)Cc2ccccc2Cl)ccc1-c1cnn(C(F)F)c1` [Example 326, 2-(2-Chlorophenyl)-N-{4-[1-(difluoromethyl)-1H-pyrazol-4-yl]-3-sulfamoylphenyl}acetamide], the pIC50 under setting [1] is 6.39 and 6.78 and 6.83 and 7.35 and 7.31. On the same count and under the same terms, under `NS(=O)(=O)c1cc(NC(=O)Cc2ccccc2Cl)cnc1-n1cc(C(F)(F)F)cn1` [Example 380, 2-(2-Chlorophenyl)-N-{5-sulfamoyl-6-[4-(trifluoromethyl)-1H-pyrazol-1-yl]pyridin-3-yl}acetamide] stands 6.58 and 6.60 and 6.36 and 7.03 and 7.30 and 6.68.
